Assay results taken from US10308658B2, “Salt of EGFR inhibitor, crystalline form and uses thereof” (SUNSHINE LAKE PHARMA CO., LTD., priority 2015, dated 2019).

How the values were obtained:
[1] = Hygroscopic test (Chinese Pharmacopoeia 2010, appendix XIX J); format: physicochemical; settings: 25° C.±1° C., relative humidity 80%±2%, 24 h; for Hygroscopic weight gain: dimethanesulfonate monohydrate
Source text: 1. Instruments: one hundred thousandth electronic balance, type: XP205DR, manufacturer: Mettler.
2. Test method deriving from Chinese Pharmacopoeia 2010, appendix XIX J: Guideline on pharmaceutical hygroscopic test. Specific method is described as follows:
1) Placing a dried glass-stoppered, weighing bottle (outer diameter: 50 mm, height: 15 mm) in a thermostatic drier with saturated aqueous ammonium chloride or ammonium sulfate solution in the bottom at the previous day of the test maintaining the temperature at 25° C.±1° C., and the glass-stoppered, weighing bottle was weighed precisely.
2) Taking and weighing an appropriate amount of the sample (m1), and placing the sample into the weighing bottle with thickness of about 1 mm.
3) Opening the weighing bottle, and placing the glass stopper with the opened weighing bottle in a constant temperature and humidity condition for 24 h.
4) Sealing the weighing bottle with glass stopper, and the weighing bottle sealed with glass stopper was weighed precisely (m2). The percentage (%) of weight gain was calculated. Percentage (%) of weight gain=(m2−m1−m0)/m1×100%
5) The hygroscopic features and definition of hygroscopic weight gain are summarized in table 3 (deriving from Chinese Pharmacopoeia 2010, appendix XIX J: Guideline on pharmaceutical hygroscopic test, test conditions: 25° C.±1° C., Relative Humidity 80%±2%).

[2] = Pharmacokinetic assay in beagle dogs; format: in vivo; settings: for AUC(0-inf) / AUC(0-t) / Cmax / Tmax / half-life: dog, in vivo, oral, capsule, 5 mg/kg as compound of Formula (II)
Procedure: The pharmacokinetic properties of the compound of Formula (II) and crystalline form I of the invention were assessed in beagle dogs: each group having 3 beagle dogs was administered by oral in a capsule form. The dosage amount of crystalline form I was converted and determined according to the compound of Formula (II) at a dosage of 5 mg/kg.

[3] = Accelerated test (40±2° C./75%±5% RH, six months); format: physicochemical; settings: for Impurities (total impurities, %) / Moisture (%): 40±2° C./75%±5% RH
Procedure: (§1) The purity of the compound used in the stability test or accelerated test is measured by Aglient 1200 high performance liquid chromatography with VWD detector. The chromatographic column model is ZORBAX Extend-C18 (4.6×150 mm, […]), the detection wavelength is 250 nm, the flow rate is 1.0 mL/min, the column temperature is 40° C., and the mobile phase is 10 mM KH2PO4 (pH=7.5)-acetonitrile (v/v=55/45).
According to “Guidelines for the stability test of raw materials and preparations” (Chinese Pharmacopoeia, 2015, 4th edition, general rules 9001), the accelerated test of crystalline form I was practiced as follows:
Medicinal low density polyethylene bag (the size was 140*120*0.104 mm^3, the manufacture was Tianjin Litian Medicine Packing Material Co., Ltd, and the batch number was 121238.) was used as inner package material, and the bag was sealed by nylon cable ties; and paper tube was used as a packaging material. The packaged samples were placed in a constant temperature and humidity test chamber (40±2° C./75%±5% RH) for six months for accelerated test. Sampling at the end of 1, 2, 3 or 6 months for testing the moisture content of the sample by using karl fischer titration, the content of impurities was measured by HPLC.

[4] = Stability test (high temperature, high humidity, illumination); format: physicochemical
Procedure: as §1
According to “Guidelines for the stability test of raw materials and preparations” (Chinese Pharmacopoeia, 2015, 4th edition, general rules 9001), the stability of crystalline form I was tested as follows:
Appropriate amount of sample was taken into the flat weighing bottle to form a thin layer of no more than 5 mm thick. […] The content of impurities was tested by HPLC.

EGFR = EGFR (Homo sapiens, UniProt P00533); settings: as disclosed in CN 103102344 A; cited from earlier work
[5] = oral capsule, individual data analysis

Chain of EGFR (P00533 25-1210, species assumed): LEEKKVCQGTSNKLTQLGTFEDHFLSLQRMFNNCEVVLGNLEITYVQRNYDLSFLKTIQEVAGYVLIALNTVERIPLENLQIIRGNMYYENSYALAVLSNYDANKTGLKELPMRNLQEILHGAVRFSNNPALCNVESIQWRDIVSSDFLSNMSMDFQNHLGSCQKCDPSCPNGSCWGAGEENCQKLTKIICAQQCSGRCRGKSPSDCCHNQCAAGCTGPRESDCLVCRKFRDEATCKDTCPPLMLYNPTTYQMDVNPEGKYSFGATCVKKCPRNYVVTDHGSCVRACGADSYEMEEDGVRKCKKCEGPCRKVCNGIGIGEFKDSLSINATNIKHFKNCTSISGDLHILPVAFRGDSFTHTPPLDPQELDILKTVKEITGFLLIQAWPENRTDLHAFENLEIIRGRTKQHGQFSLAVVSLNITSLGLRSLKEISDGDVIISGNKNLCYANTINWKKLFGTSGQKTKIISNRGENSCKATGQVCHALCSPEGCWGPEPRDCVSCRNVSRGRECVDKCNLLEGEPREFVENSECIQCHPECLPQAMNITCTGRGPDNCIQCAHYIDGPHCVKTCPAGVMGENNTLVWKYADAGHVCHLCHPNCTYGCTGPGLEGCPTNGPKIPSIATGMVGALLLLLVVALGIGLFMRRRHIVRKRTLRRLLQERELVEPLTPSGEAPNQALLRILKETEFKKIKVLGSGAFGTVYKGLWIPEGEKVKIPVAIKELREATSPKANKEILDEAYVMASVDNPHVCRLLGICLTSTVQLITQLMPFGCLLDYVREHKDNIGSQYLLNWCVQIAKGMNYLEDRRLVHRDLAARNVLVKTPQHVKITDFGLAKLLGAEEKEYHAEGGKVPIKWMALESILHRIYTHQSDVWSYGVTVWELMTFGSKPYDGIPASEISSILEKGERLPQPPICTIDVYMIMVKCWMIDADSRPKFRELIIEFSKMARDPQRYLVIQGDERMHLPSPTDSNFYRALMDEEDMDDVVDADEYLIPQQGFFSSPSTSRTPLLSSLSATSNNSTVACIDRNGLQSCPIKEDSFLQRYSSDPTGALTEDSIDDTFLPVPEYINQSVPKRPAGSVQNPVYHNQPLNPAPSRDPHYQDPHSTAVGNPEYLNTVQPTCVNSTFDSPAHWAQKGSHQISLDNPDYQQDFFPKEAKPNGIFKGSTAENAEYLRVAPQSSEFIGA

Q: Which results are given for `COc1cc2ncnc(Nc3ccc(F)c(Cl)c3)c2cc1OCCCN1C[C@@H]2OCCO[C@@H]2C1.CS(=O)(=O)O.CS(=O)(=O)O.O` [Crystalline form I, 4-[(3-chloro-4-fluorophenyl)amino]-7-methoxy-6-[3-[(1R,6S)-2,5-dioxa-8-azabicyclo[4.3.0]nonan-8-yl]propoxy]quinazoline dimethanesulfonate monohydrate]?
A: Hygroscopic feature [1]: almost no hygroscopicity; Hygroscopic weight gain [1]: 0.074%; Hygroscopic weight gain ([1]; listed as crystalline form I): 0.074%; AUC(0-inf) [2]: 1470 ng·h/mL; AUC(0-t) [2]: 1450 ng·h/mL; Cmax [2]: 231 ng/mL; Tmax [2]: 1.33 h; half-life [2]: 3.65 h; Tmax time compared with compound of Formula (II) ([2]; oral capsule): earlier than compound of Formula (II); absorption compared with compound of Formula (II) [2, 5]: faster absorption; exposure level compared with compound of Formula (II) [2, 5]: higher exposure level; Impurities (total impurities, %) ([3]; 0 day): 0.18%; Moisture (%) ([3]; 0 day): 2.79%; Impurities (total impurities, %) ([3]; One month): 0.18%; Moisture (%) ([3]; One month): 2.92%; Impurities (total impurities, %) ([3]; Six months): 0.17%; Moisture (%) ([3]; Six months): 2.86%; Impurities (total impurities, %) ([3]; Three months): 0.18%; Moisture (%) ([3]; Three months): 3.09%; Impurities (total impurities, %) ([3]; Two months): 0.17%; Moisture (%) ([3]; Two months): 2.87%; quality (stability) ([3]; accelerated test condition for six months, low density polyethylene bag as inner package): stable; Impurities (total impurities, %) ([4]; 0 day): 0.13%; Impurities (total impurities, %) ([4]; High humidity 25° C. ± 2° C./92.5% RH, 5 days): 0.14%; Impurities (total impurities, %) ([4]; High humidity 25° C. ± 2° C./92.5% RH, 10 days): 0.16%; Impurities (total impurities, %) ([4]; High temperature 60° C. ± 2° C., 5 days): 0.12%; Impurities (total impurities, %) ([4]; High temperature 60° C. ± 2° C., 10 days): 0.14%; Impurities (total impurities, %) ([4]; Illumination 4500 ± 500 lx, 5 days): 0.13%; Impurities (total impurities, %) ([4]; Illumination 4500 ± 500 lx, 10 days): 0.13%; Impurities (total impurities, %) ([4]; Illumination 4500 ± 500 lx, 15 days): 0.14%; change of impurity ([4]; high temperature 10 days, high humidity 10 days, illumination 15 days): no obvious change; quality (stability) ([4]; high temperature, high humidity or illumination condition): stable

Q: Which AUC(0-inf) [2] does the source give for `COc1cc2ncnc(Nc3ccc(F)c(Cl)c3)c2cc1OCCCN1C[C@@H]2OCCO[C@@H]2C1` [Compound of Formula (II), 4-[(3-chloro-4-fluorophenyl)amino]-7-methoxy-6-[3-[(1R,6S)-2,5-dioxa-8-azabicyclo [4.3.0]nonan-8-yl]propoxy]quinazoline] here?
A: The AUC(0-inf) was 886 ng·h/mL.

Q: What about the AUC(0-t) [2] of the same compound?
A: The AUC(0-t) was 825 ng·h/mL.

Q: What about the Cmax [2] of the same compound?
A: The Cmax was 125 ng/mL.

Q: What about the Tmax [2] of the same compound?
A: Its Tmax is 1.67 h.

Q: What about the half-life [2] of the same compound?
A: The half-life was 3.62 h.

Q: What about the “inhibition activity against EGFR” value (EGFR) of the same compound?
A: Its value is “high inhibition activity”.
